Data published in patent publication US6939896B2, “Cd45 inhibitors” (AstraZeneca AB, priority 1999, dated 2005).

Legend:
CD45 [1] = biological target: T1, CD45 (Homo sapiens, UniProt P08575); experiment: Phosphatase assay using pNPP as substrate; type: biochemical; settings: pH 7.0
T1 construct: incubating the cytosolic portion of CD45 with the compounds and p-nitrophenyl phosphate (pNPP); purchased BIOMOL (Plymouth Meeting, Pa.)
T1 sequence (P08575 599-1306 limits assumed): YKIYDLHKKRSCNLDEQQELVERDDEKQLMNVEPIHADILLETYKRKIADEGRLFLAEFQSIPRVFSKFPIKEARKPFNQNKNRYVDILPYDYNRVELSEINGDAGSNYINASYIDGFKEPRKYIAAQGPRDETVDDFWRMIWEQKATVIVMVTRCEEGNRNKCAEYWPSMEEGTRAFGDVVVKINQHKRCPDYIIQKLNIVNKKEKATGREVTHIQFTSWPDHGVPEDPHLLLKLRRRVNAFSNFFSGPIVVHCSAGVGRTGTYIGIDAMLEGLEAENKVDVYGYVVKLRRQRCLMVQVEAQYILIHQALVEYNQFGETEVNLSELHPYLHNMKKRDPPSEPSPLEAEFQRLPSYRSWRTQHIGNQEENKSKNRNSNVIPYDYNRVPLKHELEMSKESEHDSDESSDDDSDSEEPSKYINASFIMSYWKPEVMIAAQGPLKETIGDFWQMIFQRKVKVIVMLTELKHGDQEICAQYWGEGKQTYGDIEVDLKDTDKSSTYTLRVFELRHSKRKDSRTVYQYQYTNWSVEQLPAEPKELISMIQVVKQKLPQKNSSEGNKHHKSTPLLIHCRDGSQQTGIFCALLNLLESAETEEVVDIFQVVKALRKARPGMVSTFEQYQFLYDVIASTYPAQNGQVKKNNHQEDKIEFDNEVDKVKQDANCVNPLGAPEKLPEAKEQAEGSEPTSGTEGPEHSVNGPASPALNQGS
Description: (§1) Potent inhibitors of CD45 have been discovered. Such inhibitors are useful for the treatment of various autoimmune disorders as well as for treatment of OGR. Inhibition of the phosphatase activity of CD45 by compounds of the present invention has been shown by incubating the cytosolic portion of CD45 with the compounds and p-nitrophenyl phosphate (pNPP), a phosphatase substrate. Spectrophotometric monitoring has shown that the liberation of p-nitrophenol from the substrate by CD45 is inhibited in the presence of the compounds disclosed herein. Inhibition of the phosphatase activity of CD45 by compounds of the present invention has also been shown using a p56^lck carboxy-terminal phosphorylated peptide as a substrate.
CD45 enzyme was obtained from BIOMOL (Plymouth Meeting, Pa.). Phosphatase activity was assayed in a buffer containing final concentrations of 25 mM imidazole at pH 7.0, 50 mM NaCl, 2.5 mM ethylenediaminetetraacetic acid (“EDTA”), 5 mM dithiothreitol (“DTT”) and 10 μg/mL bovine serum albumin (“BSA”) using pNPP as a substrate.
Activity was measured by following the increase in absorbance at 405 nm using a SpectraMax Plus spectrophotometric plate reader (Molecular Devices, Sunnyvale, Calif.).

CD45 [2] = biological target: T1, CD45; experiment: Phosphatase assay using lck 10-mer as substrate; type: biochemical; settings: lck carboxy-terminal peptide TEGQpYQPQP substrate, pH 7.2, 5% DMSO, read-out: Ick IC50
Description: as §1
Phosphatase activity was assayed in 96 well plates in a buffer containing final concentrations of 25 mM HEPES at pH 7.2, 5 mM DTT and 10 μg/mL BSA, using the lck carboxy-terminal peptide TEGQpYQPQP as the substrate (Cho, H., Krishnaraj. R., Itoh. M., Kitas, E., Bannwarth, W., Saito, H., Walsh, C. T. 1993. Substrate specificities of catalytic fragments of protein tyrosine phosphatases (HPTPb, LAR. and CD45) toward the phosphotyrosylpeptide substrates and thiophosphotyrosylated peptides as inhibitors. Protein Science 2:977-984). Compounds were tested in a range from 30 to 0.01 μM in a final concentration of 5% DMSO. Enzyme was incubated with substrate. with or without compound, at room temperature for 1.5 h. At the end of the incubation period, BIOMOL “Green Reagent” (BIOMOL, Plymouth Meeting, Pa.) was added to each well, the plates incubated at room temperature for 30 min and absorbance read at 620 nm.

[3] = tested on: Peripheral blood mononuclear cells (T cells); experiment: T cell proliferation assay (anti-CD3 OKT3-activated PBMC, [3H]thymidine); type: cell-based; settings: human PBMC activated with OKT3 30 ng/mL, read-out: T cell prolif. IC50
Description: Whole blood was obtained from healthy human blood donors. Peripheral blood mononuclear cells (“PBMC”) were isolated using Lymphoprep density-gradient centrifugation (Nycomed Amersham, Oslo, Norway), washed, counted and resuspended at 2×10^6 cells/mL in RPMI 1640 medium containing glutamine, 0.1 mg/mL gentamycin and 10% heat inactivated human serum. PBMC were transferred to 96-well plates (2×10^5 cells/well) containing compound or vehicle control, with the final concentration of DMSO not to exceed 0.3% and incubated for 1 hour before addition of the activating anti-CD3 antibody, OKT3 (30 ng/mL). After 24 hours in culture, the cells were pulsed with [3H]thymidine (1 μCi/well) overnight and harvested the next day onto 96-well Packard GF/C filter plates using a Packard Cell Harvester (Packard Instruments, Meriden, Conn.). The filter plate was dried, the bottom of the plate sealed, 25 μL of Microscint 20 scintillation fluid added to each well, the top of the plate sealed with TopSeal-A, and the plate counted on a Packard TopCount. The data from the TopCount is transferred into Excel 5 (Microsoft, Redmond, Wash.) and formatted for EC50 determination using Prism software (GraphPad Software, San Diego, Calif.).

[4] = Cytotoxicity assay (Calcein-AM uptake); type: cell-based; settings: human, T-cell lymphoblasts (PHA-expanded PBMC), overnight incubation, Calcein-AM viability

Row | SMILES | IC50 (CD45 [1]) [µM] | IC50 (CD45 [2]) [µM] | IC50 [3] [µM] | CC50 [4] [µM]
1 | O=C1C=Cc2ccccc2C1=O [Example 1, [1,2]-Naphthoquinone] | 3 | > 30 | 7 | > 30
2 | O=C1C=C(Cl)c2ccccc2C1=O [Example 5, 4-Chloro-[1,2]naphthoquinone] | 10 | > 30 | > 30 | > 30
3 | O=C1C=C(Br)c2ccccc2C1=O [Example 6, 4-Bromo-[1,2]naphthoquinone] | 8.7 | > 30 | 22 | > 30
4 | O=C1C=C(c2ccccc2Cl)c2ccccc2C1=O [Example 9, 4-(2-Chloro-phenyl)-[1,2]naphthoquinone] | 8 | > 30 | 0.3 | 124
5 | O=C1C=C(c2ccc(Br)cc2)c2ccccc2C1=O [Example 10, 4-(4-Bromo-phenyl)-[1,2]naphthoquinone] | 7.7 | > 30 | 0.11 | 3
6 | O=C1C=C(c2ccccc2)c2ccccc2C1=O [Example 11, 4-Phenyl-[1,2]naphthoquinone] | 5 | > 30 | 0.15 | 12
7 | O=C1C=C(c2cccc3ccccc23)c2ccccc2C1=O [Example 12, [1,1′]Binaphthalenyl-3,4-dione] | 22.5 | > 30 | 3.2 | > 30
8 | O=C1C=C(c2cc(Cl)cc(Cl)c2)c2ccccc2C1=O [Example 13, 4-(3,5-Dichloro-phenyl)-[1,2]naphthoquinone] | 5.5 |  | 0.3 | 5.5
9 | O=C1C=C(c2cccc([N+](=O)[O-])c2)c2ccccc2C1=O [Example 14, 4-(3-Nitro-phenyl)-[1,2]naphthoquinone] | 7.9 | > 30 | 0.2 | 4
10 | O=C1C=Cc2cc(C(=O)c3ccccc3)ccc2C1=O [Example 15, 6-Benzoyl-[1,2]naphthoquinone] | 22 | > 30 | 11 | > 30
11 | COC(=O)c1cccc2c1C=CC(=O)C2=O [Example 16, 5,6-Dioxo-5,6-dihydro-naphthalene-1-Carboxylic acid methyl ester] | 11 | > 30 |  | > 30
12 | COC(=O)c1ccc2c(c1)C=CC(=O)C2=O [Example 17, 5,6-Dioxo-5,6-dihydro-naphthalene-2-Carboxylic acid methyl ester] | 7 | > 30 | 7 | > 30

Further lines, with some results ahead:

Row | IC50 (CD45 [1]) [µM] | IC50 (CD45 [2]) [µM] | SMILES | IC50 [3] [µM] | CC50 [4] [µM]
13 | 2 |  | CCOC1=CC(=O)C(=O)c2ccccc21 [Example 2, 4-Ethoxy-[1,2]naphthoquinone] | > 30 | 30
14 | 1.2 | 4.2 | COC1=CC(=O)C(=O)c2ccccc21 [Example 3, 4-Methoxy-[1,2]naphthoquinone] | > 30 | 
15 | 1.2 | 4.9 | C=CCOC1=CC(=O)C(=O)c2ccccc21 [Example 4, 4-Allyloxy-[1,2]naphthoquinone] | > 30 | > 30
16 | 5 | 19 | Cn1cc(C2=CC(=O)C(=O)c3ccccc32)c2ccccc21 [Example 7, 4-(1-Methyl-1H-indol-3-yl)-[1,2]naphthoquinone] | 1.5 | > 30
17 | 2.9 | 20 | O=C1C=C(c2c(-c3ccccc3)[nH]c3ccccc23)c2ccccc2C1=O [Example 8, 4-(2-Phenyl-1H-indol-3-yl)-[1,2]naphthoquinone] | 2 | 16
18 | 4.9 |  | O=C1C=Cc2ccc(O)cc2C1=O [Example 18, 7-Hydroxy-[1,2]naphthoquinone] | > 30 | > 30
